How the values were obtained:
Settings in all cases: 48 h
SEM cells [1] = assay: AUC of viability dose-response curve (% viability x log10 dose units); higher = less sensitive
Summary of the method: (§1)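 Leukemia cells adapted to each medium were seeded in 1536-well plates (500 or 1000 cells/well). They were dosed with library compounds in DMSO at 11 threefold doses, 47 μM to 0.79 nM, for 48 h at 37°C. CellTiter-Glo One luminescence was normalised per plate to DMSO and cell-free wells. Area under the curve was integrated by trapezoidal rule over log10 doses on a four-parameter log-logistic fit; curves exceeding full viability were scaled and curves failing quality control removed.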

P12-Ichikawa [2] = assay: as above
Summary of the method: as §1

NOMO1 [3] = assay: as above
Summary of the method: as §1

SEM cells [4] = assay: cell viability relative to DMSO control; higher = less cytotoxic
Summary of the method: (§2)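 Viability is expressed as a percentage of DMSO wells within each plate, and cell-free wells serve as background. Seeding densities in the 1536-well plates (5 μl) were 500 cells/well for NOMO1 or SEM leukemia cells and 1000 cells/well for P12-Ichikawa. Each line was adapted for at least four passages in each medium. Library compounds in DMSO were pin-dosed at 47 μM to 0.79 nM (11 points, threefold), and CellTiter-Glo One luminescence was read after 48 h at 37°C.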

P12-Ichikawa [5] = assay: as above
Summary of the method: as §2

NOMO1 [6] = assay: as above
Summary of the method: as §2

COC(=O)C1C2CC3c4[nH]c5cc(OC)ccc5c4CCN3CC2CC(OC(=O)c2cc(OC)c(OC)c(OC)c2)C1OC (stereo not drawn)
AUC of viability dose-response curve
Settings	NOMO1 [3]	P12-Ichikawa [2]	SEM cells [1]
HPLM + 10% dialyzed FBS	465	467	462
RPMI 5 mM glucose + 10% FBS	454	471	459
RPMI 5 mM glucose + 10% dialyzed FBS	468	445	456

cell viability [%]
Settings	NOMO1 [6]	P12-Ichikawa [5]	SEM cells [4]
HPLM + 10% dialyzed FBS, 0.000781 µM	108	106	116
HPLM + 10% dialyzed FBS, 0.00234 µM	123	109	120
HPLM + 10% dialyzed FBS, 0.00702 µM	101	112	119
HPLM + 10% dialyzed FBS, 0.0211 µM	125	107	125
HPLM + 10% dialyzed FBS, 0.0632 µM	119	115	130
HPLM + 10% dialyzed FBS, 0.19 µM	112	111	119
HPLM + 10% dialyzed FBS, 0.569 µM	115	101	141
HPLM + 10% dialyzed FBS, 1.71 µM	106	105	115
HPLM + 10% dialyzed FBS, 5.12 µM	112	110	116
HPLM + 10% dialyzed FBS, 15.4 µM	102	107	117
HPLM + 10% dialyzed FBS, 46.1 µM	81.3	102	105
RPMI 5 mM glucose + 10% FBS, 0.000781 µM	106	115	97.2
RPMI 5 mM glucose + 10% FBS, 0.00234 µM	94.6	120	120
RPMI 5 mM glucose + 10% FBS, 0.00702 µM	107	121	102
RPMI 5 mM glucose + 10% FBS, 0.0211 µM	103	114	107
RPMI 5 mM glucose + 10% FBS, 0.0632 µM	95.2	107	113
RPMI 5 mM glucose + 10% FBS, 0.19 µM	104	109	102
RPMI 5 mM glucose + 10% FBS, 0.569 µM	93.4	118	104
RPMI 5 mM glucose + 10% FBS, 1.71 µM	94.1	112	112
RPMI 5 mM glucose + 10% FBS, 5.12 µM	96.4	111	94.8
RPMI 5 mM glucose + 10% FBS, 15.4 µM	95.7	113	85.2
RPMI 5 mM glucose + 10% FBS, 46.1 µM	90.2	91	91.4
RPMI 5 mM glucose + 10% dialyzed FBS, 0.000781 µM	105	121	116
RPMI 5 mM glucose + 10% dialyzed FBS, 0.00234 µM	101	106	110
RPMI 5 mM glucose + 10% dialyzed FBS, 0.00702 µM	103	119	113
RPMI 5 mM glucose + 10% dialyzed FBS, 0.0211 µM	93.8	114	105
RPMI 5 mM glucose + 10% dialyzed FBS, 0.0632 µM	92.1	104	104
RPMI 5 mM glucose + 10% dialyzed FBS, 0.19 µM	98.2	113	134
RPMI 5 mM glucose + 10% dialyzed FBS, 0.569 µM	98.5	105	124
RPMI 5 mM glucose + 10% dialyzed FBS, 1.71 µM	105	106	135
RPMI 5 mM glucose + 10% dialyzed FBS, 5.12 µM	102	107	128
RPMI 5 mM glucose + 10% dialyzed FBS, 15.4 µM	112	99.5	82.1
RPMI 5 mM glucose + 10% dialyzed FBS, 46.1 µM	82.9	102	86.6
